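Results reflect a 48-hour exposure of cells in 96-well plates to compound at five concentrations. Abbreviation: GI50, concentration required for 50% inhibition of growth. Definition used: TGI = concentration required for complete inhibition of growth.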
Tests used:
Test in all cases: DTP human tumour cell line panel, 48 h
SK-MEL-5 melanoma = system: SK-MEL-5 melanoma
CAKI-1 renal = system: CAKI-1 renal
SN12C renal = system: SN12C renal
COLO 205 colon = system: COLO 205 colon
IGROV1 ovarian = system: IGROV1 ovarian
K-562 leukemia = system: K-562 leukemia
U251 CNS = system: U251 CNS
OVCAR-8 ovarian = system: OVCAR-8 ovarian
SK-MEL-2 melanoma = system: SK-MEL-2 melanoma
HCT-15 colon = system: HCT-15 colon
UACC-62 melanoma = system: UACC-62 melanoma
MDA-MB-468 breast = system: MDA-MB-468 breast
MDA-MB-231 breast = system: MDA-MB-231 breast
SNB-75 CNS = system: SNB-75 CNS
CCRF-CEM leukemia = system: CCRF-CEM leukemia
SR leukemia = system: SR leukemia
DU-145 prostate = system: DU-145 prostate
BT-549 breast = system: BT-549 breast
NCI-H23 lung = system: NCI-H23 lung
UO-31 renal = system: UO-31 renal
RXF 393 renal = system: RXF 393 renal
NCI-H226 lung = system: NCI-H226 lung
OVCAR-4 ovarian = system: OVCAR-4 ovarian
EKVX NSCLC = system: EKVX NSCLC
HOP-92 NSCLC = system: HOP-92 NSCLC
OVCAR-3 ovarian = system: OVCAR-3 ovarian
TK-10 renal = system: TK-10 renal
HCT-116 colon = system: HCT-116 colon
A549 NSCLC = system: A549 NSCLC
HL-60(TB) leukemia = system: HL-60(TB) leukemia

CC(=O)Nc1ccc(-c2cn(-c3cccc(C(=O)Nc4ccc(F)c(C(F)(F)F)c4)c3)nn2)cn1
TGI (SK-MEL-5 melanoma): 34 µM
GI50 (CAKI-1 renal): 17.3 µM
TGI (CAKI-1 renal): 32.7 µM
GI50 (SN12C renal): 16.1 µM
TGI (SN12C renal): 30.4 µM
GI50 (COLO 205 colon): 18.3 µM
TGI (COLO 205 colon): 41.3 µM
GI50 (IGROV1 ovarian): 16.5 µM
TGI (IGROV1 ovarian): 30.9 µM
GI50 (K-562 leukemia): 4.13 µM
TGI (K-562 leukemia): 24.6 µM
GI50 (U251 CNS): 23.5 µM
TGI (U251 CNS): 57.7 µM
GI50 (OVCAR-8 ovarian): 28 µM
TGI (OVCAR-8 ovarian): 89.8 µM
GI50 (SK-MEL-2 melanoma): 16.6 µM
TGI (SK-MEL-2 melanoma): 34.4 µM
GI50 (HCT-15 colon): 17.2 µM
TGI (HCT-15 colon): 33.4 µM
GI50 (UACC-62 melanoma): 14.2 µM
TGI (UACC-62 melanoma): 27.6 µM
GI50 (MDA-MB-468 breast): 14.8 µM
TGI (MDA-MB-468 breast): 29 µM
GI50 (MDA-MB-231 breast): 11.2 µM
TGI (MDA-MB-231 breast): 24.1 µM
GI50 (SNB-75 CNS): 13.8 µM
TGI (SNB-75 CNS): 35.7 µM
GI50 (CCRF-CEM leukemia): 22.2 µM
TGI (CCRF-CEM leukemia): 71.5 µM
GI50 (SR leukemia): 31 µM
TGI (SR leukemia): > 100 µM
GI50 (DU-145 prostate): 27 µM
TGI (DU-145 prostate): 79.3 µM
GI50 (BT-549 breast): 13.2 µM
TGI (BT-549 breast): 30.9 µM
GI50 (NCI-H23 lung): 14.8 µM
TGI (NCI-H23 lung): 28.8 µM
GI50 (UO-31 renal): 15.4 µM
TGI (UO-31 renal): 29.6 µM
GI50 (RXF 393 renal): 14.5 µM
TGI (RXF 393 renal): 31.6 µM
GI50 (NCI-H226 lung): 18.4 µM
TGI (NCI-H226 lung): 36.3 µM
GI50 (OVCAR-4 ovarian): 20.3 µM
TGI (OVCAR-4 ovarian): 40.9 µM
GI50 (EKVX NSCLC): 18.1 µM
TGI (EKVX NSCLC): 34 µM
GI50 (HOP-92 NSCLC): 15.8 µM
TGI (HOP-92 NSCLC): 35.1 µM
GI50 (OVCAR-3 ovarian): 21.2 µM
TGI (OVCAR-3 ovarian): 41.4 µM
GI50 (TK-10 renal): 23.7 µM
TGI (TK-10 renal): 41.1 µM
GI50 (HCT-116 colon): 1.47 µM
TGI (HCT-116 colon): 18.2 µM
GI50 (A549 NSCLC): 25.2 µM
TGI (A549 NSCLC): 68.5 µM
GI50 (HL-60(TB) leukemia): 6.57 µM
TGI (HL-60(TB) leukemia): > 100 µM

— PubChem BioAssay (NCI)
